In series [1] the test system is HUVEC. Put plainly: Cytotoxicity against HUVEC assessed as effect on cell viability up to 100 uM after 24 hrs by WST1 assay. Format: cell-based. The note with it: human.
Series [2] concerns MCF7. Put plainly: Cytotoxicity against human MCF7 cells assessed as effect on cell viability up to 100 uM after 24 hrs by WST1 assay. Format: cell-based. Particulars: mcf7, 24 h.

Structures are written as SMILES.

The record followed here is ChEMBL document CHEMBL4190167 (Medchemcomm, 2016).

Consider `COC(=O)[C@]1(C)CCC[C@]2(C)c3cc4oc(C)nc4cc3C[C@@H](O)[C@@H]12`, for which the Activity result in series [1] and in series [2] was “Non-Toxic” in each case.

`CCOC(=O)[C@]1(C)CCC[C@]2(C)c3cc4occc4cc3C[C@@H](O)[C@@H]12`: the Activity entry in series [1] and in series [2] was “Non-Toxic” throughout.
